Measurements as given in ChEMBL document CHEMBL3734713, “4-Thiazolidinone derivatives as potent antimicrobial agents: microwave-assisted synthesis, biological evaluation and docking studies” (2015).
In brackets after ≈: the same amount, converted by molar mass.

Tests used:
Aspergillus niger = test: Antifungal activity against Aspergillus niger ATCC 6275 assessed as growth inhibition after 72 hrs at 28 degC by serial dilution method; type: functional; settings: for MIC: Aspergillus niger, ATCC 6275, 72 h
Trichoderma viride = test: Antifungal activity against Trichoderma viride IAM 5061 assessed as growth inhibition after 72 hrs at 28 degC by serial dilution method; type: functional; settings: for MIC: Trichoderma viride, IAM 5061, 72 h
Escherichia coli = test: Antibacterial activity against Escherichia coli ATCC 35210 assessed as growth inhibition after 24 hrs at 37 degC by iodonitrotetrazolium chloride staining based microdilution broth assay; type: functional; settings: ATCC 35210, 24 h
Candida albicans = test: Antifungal activity against Candida albicans ATCC 10231 assessed as growth inhibition after 72 hrs at 28 degC by serial dilution method; type: functional; settings: for MIC: Candida albicans, ATCC 10231, 72 h
Staphylococcus aureus = test: Antibacterial activity against Staphylococcus aureus ATCC 6538 assessed as growth inhibition after 24 hrs at 37 degC by iodonitrotetrazolium chloride staining based microdilution broth assay; type: functional; settings: ATCC 6538, 24 h
Enterobacter cloacae = test: Antibacterial activity against human isolate of Enterobacter cloacae assessed as growth inhibition after 24 hrs at 37 degC by iodonitrotetrazolium chloride staining based microdilution broth assay; type: functional
Bacillus cereus = test: Antibacterial activity against clinical isolates of Bacillus cereus assessed as growth inhibition after 24 hrs at 37 degC by iodonitrotetrazolium chloride staining based microdilution broth assay; type: functional
Listeria monocytogenes = test: Antibacterial activity against Listeria monocytogenes NCTC 7973 assessed as growth inhibition after 24 hrs at 37 degC by iodonitrotetrazolium chloride staining based microdilution broth assay; type: functional; settings: NCTC 7973, 24 h
Aspergillus ochraceus = test: Antifungal activity against Aspergillus ochraceus ATCC 12066 assessed as growth inhibition after 72 hrs at 28 degC by serial dilution method; type: functional; settings: for MIC: Aspergillus ochraceus, ATCC 12066, 72 h
Aspergillus fumigatus = test: Antifungal activity against Aspergillus fumigatus ATCC 1022 assessed as growth inhibition after 72 hrs at 28 degC by serial dilution method; type: functional; settings: for MIC: Aspergillus fumigatus, ATCC 1022, 72 h
Pseudomonas aeruginosa = test: Antibacterial activity against Pseudomonas aeruginosa ATCC 27853 assessed as growth inhibition after 24 hrs at 37 degC by iodonitrotetrazolium chloride staining based microdilution broth assay; type: functional; settings: ATCC 27853, 24 h
Aspergillus versicolor = test: Antifungal activity against Aspergillus versicolor ATCC 11730 assessed as growth inhibition after 72 hrs at 28 degC by serial dilution method; type: functional; settings: for MIC: Aspergillus versicolor, ATCC 11730, 72 h
Micrococcus flavus = test: Antibacterial activity against Micrococcus flavus ATCC 10240 assessed as growth inhibition after 24 hrs at 37 degC by iodonitrotetrazolium chloride staining based microdilution broth assay; type: functional; settings: ATCC 10240, 24 h
Talaromyces funiculosus = test: Antifungal activity against Penicillium funiculosum ATCC 36839 assessed as growth inhibition after 72 hrs at 28 degC by serial dilution method; type: functional; settings: for MIC: Talaromyces funiculosus, ATCC 36839, 72 h
Salmonella typhimurium = test: Antibacterial activity against Salmonella typhimurium ATCC 13311 assessed as growth inhibition after 24 hrs at 37 degC by iodonitrotetrazolium chloride staining based microdilution broth assay; type: functional, Salmonella enterica subsp. enterica serovar Typhimurium; settings: Salmonella enterica, ATCC 13311, 24 h
[1] = biological target: Human immunodeficiency virus type 1 reverse transcriptase (Human immunodeficiency virus 1) (UniProt Q72547); test: Inhibition of HIV1 reverse transcriptase assessed as residual enzyme activity by measuring reduction in [3H]dTTP incorporation into poly(rA)-oligo(dT) at 4 uM incubated for 15 mins by scintillation counting method relative to control
Penicillium ochrochloron = test: Antifungal activity against Penicillium ochrochloron ATCC 9112 assessed as growth inhibition after 72 hrs at 28 degC by serial dilution method; type: functional; settings: for MIC: Penicillium ochrochloron, ATCC 9112, 72 h

Row | SMILES | MFC99.5 (Aspergillus niger) | MIC (Aspergillus niger) | MFC99.5 (Trichoderma viride) | MIC (Trichoderma viride) | MBC (Escherichia coli) | MIC (Escherichia coli) | MFC99.5 (Candida albicans) | MIC (Candida albicans) | MBC (Staphylococcus aureus) | MIC (Staphylococcus aureus) | MBC (Enterobacter cloacae) | MIC (Enterobacter cloacae) | MBC (Bacillus cereus) | MIC (Bacillus cereus) | MBC (Listeria monocytogenes) | MIC (Listeria monocytogenes) | MFC99.5 (Aspergillus ochraceus) | MIC (Aspergillus ochraceus) | MFC99.5 (Aspergillus fumigatus) | MIC (Aspergillus fumigatus) | also measured
1 | COc1ccc(C2SCC(=O)N2c2nc(C34CC5CC(CC(C5)C3)C4)cs2)cc1 (stereo not given) | 0.58 ×10⁻² umol/ml | 2.9 µM (≈ 1.24 µg/mL) | 0.29 ×10⁻² umol/ml | 1.4 µM (≈ 0.597 µg/mL) | 125 µM (≈ 53.3 µg/mL) | 30.6 µM (≈ 13.1 µg/mL) | 2.34 ×10⁻² umol/ml | 11.7 µM (≈ 4.99 µg/mL) | 62.5 µM (≈ 26.7 µg/mL) | 30.6 µM (≈ 13.1 µg/mL) | 125 µM (≈ 53.3 µg/mL) | 30.6 µM (≈ 13.1 µg/mL) | 30.6 µM (≈ 13.1 µg/mL) | 16.3 µM (≈ 6.95 µg/mL) | 125 µM (≈ 53.3 µg/mL) | 62.5 µM (≈ 26.7 µg/mL) | 0.29 ×10⁻² umol/ml | 1.4 µM (≈ 0.597 µg/mL) | 2.34 ×10⁻² umol/ml | 11.7 µM (≈ 4.99 µg/mL) | MBC (Pseudomonas aeruginosa): 62.5 µM (≈ 26.7 µg/mL); MIC (Pseudomonas aeruginosa): 30.6 µM (≈ 13.1 µg/mL); MFC99.5 (Aspergillus versicolor): 0.58 ×10⁻² umol/ml; MIC (Aspergillus versicolor): 2.9 µM (≈ 1.24 µg/mL); MBC (Micrococcus flavus): 125 µM (≈ 53.3 µg/mL); MIC (Micrococcus flavus): 62.5 µM (≈ 26.7 µg/mL); MFC99.5 (Talaromyces funiculosus): 0.58 ×10⁻² umol/ml; MIC (Talaromyces funiculosus): 2.9 µM (≈ 1.24 µg/mL); MBC (Salmonella typhimurium): 62.5 µM (≈ 26.7 µg/mL); MIC (Salmonella typhimurium): 30.6 µM (≈ 13.1 µg/mL); Activity [1]: 100%; MFC99.5 (Penicillium ochrochloron): 0.14 ×10⁻² umol/ml; MIC (Penicillium ochrochloron): 0.9 µM (≈ 0.384 µg/mL)
2 | O=C1CSC(c2cccc(F)c2)N1c1nc(C23CC4CC(CC(C4)C2)C3)cs1 (stereo not given) | 0.14 ×10⁻² umol/ml | 0.8 µM (≈ 0.332 µg/mL) | 0.14 ×10⁻² umol/ml | 1.2 µM (≈ 0.497 µg/mL) | 125 µM (≈ 51.8 µg/mL) | 15.3 µM (≈ 6.34 µg/mL) | 0.14 ×10⁻² umol/ml | 0.8 µM (≈ 0.332 µg/mL) | 500 µM (≈ 207 µg/mL) | 300 µM (≈ 124 µg/mL) | 125 µM (≈ 51.8 µg/mL) | 30.6 µM (≈ 12.7 µg/mL) | 500 µM (≈ 207 µg/mL) | 300 µM (≈ 124 µg/mL) | 125 µM (≈ 51.8 µg/mL) | 15.3 µM (≈ 6.34 µg/mL) | 0.14 ×10⁻² umol/ml | 0.4 µM (≈ 0.166 µg/mL) | 0.14 ×10⁻² umol/ml | 0.8 µM (≈ 0.332 µg/mL) | MBC (Pseudomonas aeruginosa): 15.3 µM (≈ 6.34 µg/mL); MIC (Pseudomonas aeruginosa): 9 µM (≈ 3.73 µg/mL); MFC99.5 (Aspergillus versicolor): 0.14 ×10⁻² umol/ml; MIC (Aspergillus versicolor): 0.4 µM (≈ 0.166 µg/mL); MBC (Micrococcus flavus): 61.2 µM (≈ 25.4 µg/mL); MIC (Micrococcus flavus): 30.6 µM (≈ 12.7 µg/mL); MFC99.5 (Talaromyces funiculosus): 0.14 ×10⁻² umol/ml; MIC (Talaromyces funiculosus): 0.8 µM (≈ 0.332 µg/mL); MBC (Salmonella typhimurium): 15.3 µM (≈ 6.34 µg/mL); MIC (Salmonella typhimurium): 9 µM (≈ 3.73 µg/mL); Activity [1]: 100%; MFC99.5 (Penicillium ochrochloron): 0.14 ×10⁻² umol/ml; MIC (Penicillium ochrochloron): 0.4 µM (≈ 0.166 µg/mL)
3 | O=C1CSC(c2ccccc2Cl)N1c1nc(C23CC4CC(CC(C4)C2)C3)cs1 (stereo not given) | 1.16 ×10⁻² umol/ml | 9 µM (≈ 3.88 µg/mL) | 1.16 ×10⁻² umol/ml | 5.8 µM (≈ 2.5 µg/mL) | 125 µM (≈ 53.9 µg/mL) | 62.5 µM (≈ 26.9 µg/mL) | 2.32 ×10⁻² umol/ml | 11.6 µM (≈ 5 µg/mL) | 125 µM (≈ 53.9 µg/mL) | 62.5 µM (≈ 26.9 µg/mL) | 125 µM (≈ 53.9 µg/mL) | 30.6 µM (≈ 13.2 µg/mL) | 125 µM (≈ 53.9 µg/mL) | 30.6 µM (≈ 13.2 µg/mL) | 125 µM (≈ 53.9 µg/mL) | 16.2 µM (≈ 7 µg/mL) | 0.07 ×10⁻² umol/ml | 0.3 µM (≈ 0.129 µg/mL) | 1.16 ×10⁻² umol/ml | 5.8 µM (≈ 2.5 µg/mL) | MBC (Pseudomonas aeruginosa): 125 µM (≈ 53.9 µg/mL); MIC (Pseudomonas aeruginosa): 62.5 µM (≈ 26.9 µg/mL); MFC99.5 (Aspergillus versicolor): 1.16 ×10⁻² umol/ml; MIC (Aspergillus versicolor): 5.8 µM (≈ 2.5 µg/mL); MBC (Micrococcus flavus): 125 µM (≈ 53.9 µg/mL); MIC (Micrococcus flavus): 45 µM (≈ 19.4 µg/mL); MFC99.5 (Talaromyces funiculosus): 1.16 ×10⁻² umol/ml; MIC (Talaromyces funiculosus): 5.8 µM (≈ 2.5 µg/mL); MBC (Salmonella typhimurium): 125 µM (≈ 53.9 µg/mL); MIC (Salmonella typhimurium): 62.5 µM (≈ 26.9 µg/mL); Activity [1]: 99.1%; MFC99.5 (Penicillium ochrochloron): 1.16 ×10⁻² umol/ml; MIC (Penicillium ochrochloron): 5.8 µM (≈ 2.5 µg/mL)
4 | O=C1CSC(c2ccc(Cl)cc2)N1c1nc(C23CC4CC(CC(C4)C2)C3)cs1 (stereo not given) | 0.07 ×10⁻² umol/ml | 0.45 µM (≈ 0.194 µg/mL) | 0.05 ×10⁻² umol/ml | 0.3 µM (≈ 0.129 µg/mL) | 125 µM (≈ 53.9 µg/mL) | 62.5 µM (≈ 26.9 µg/mL) | 1.16 ×10⁻² umol/ml | 5.8 µM (≈ 2.5 µg/mL) | 62.5 µM (≈ 26.9 µg/mL) | 16.2 µM (≈ 7 µg/mL) | 125 µM (≈ 53.9 µg/mL) | 62.5 µM (≈ 26.9 µg/mL) | 62.5 µM (≈ 26.9 µg/mL) | 16.2 µM (≈ 7 µg/mL) | 125 µM (≈ 53.9 µg/mL) | 62.5 µM (≈ 26.9 µg/mL) | 0.07 ×10⁻² umol/ml | 0.5 µM (≈ 0.216 µg/mL) | 0.07 ×10⁻² umol/ml | 0.45 µM (≈ 0.194 µg/mL) | MBC (Pseudomonas aeruginosa): 125 µM (≈ 53.9 µg/mL); MIC (Pseudomonas aeruginosa): 16.2 µM (≈ 7 µg/mL); MFC99.5 (Aspergillus versicolor): 0.07 ×10⁻² umol/ml; MIC (Aspergillus versicolor): 0.5 µM (≈ 0.216 µg/mL); MBC (Micrococcus flavus): 62.5 µM (≈ 26.9 µg/mL); MIC (Micrococcus flavus): 30.6 µM (≈ 13.2 µg/mL); MFC99.5 (Talaromyces funiculosus): 0.07 ×10⁻² umol/ml; MIC (Talaromyces funiculosus): 0.45 µM (≈ 0.194 µg/mL); MBC (Salmonella typhimurium): 62.5 µM (≈ 26.9 µg/mL); MIC (Salmonella typhimurium): 16.2 µM (≈ 7 µg/mL); Activity [1]: 99%; MFC99.5 (Penicillium ochrochloron): 0.07 ×10⁻² umol/ml; MIC (Penicillium ochrochloron): 0.3 µM (≈ 0.129 µg/mL)
5 | O=C1CSC(c2cccc(Cl)c2)N1c1nc(C23CC4CC(CC(C4)C2)C3)cs1 (stereo not given) | 0.07 ×10⁻² umol/ml | 0.3 µM (≈ 0.129 µg/mL) | 0.045 ×10⁻² umol/ml | 0.3 µM (≈ 0.129 µg/mL) | 125 µM (≈ 53.9 µg/mL) | 62.5 µM (≈ 26.9 µg/mL) | 1.16 ×10⁻² umol/ml | 5.8 µM (≈ 2.5 µg/mL) | 62.5 µM (≈ 26.9 µg/mL) | 30.6 µM (≈ 13.2 µg/mL) | 125 µM (≈ 53.9 µg/mL) | 62.5 µM (≈ 26.9 µg/mL) | 62.5 µM (≈ 26.9 µg/mL) | 16.2 µM (≈ 7 µg/mL) | 125 µM (≈ 53.9 µg/mL) | 62.5 µM (≈ 26.9 µg/mL) | 0.07 ×10⁻² umol/ml | 0.45 µM (≈ 0.194 µg/mL) | 0.58 ×10⁻² umol/ml | 2.9 µM (≈ 1.25 µg/mL) | MBC (Pseudomonas aeruginosa): 125 µM (≈ 53.9 µg/mL); MIC (Pseudomonas aeruginosa): 62.5 µM (≈ 26.9 µg/mL); MFC99.5 (Aspergillus versicolor): 0.07 ×10⁻² umol/ml; MIC (Aspergillus versicolor): 0.3 µM (≈ 0.129 µg/mL); MBC (Micrococcus flavus): 125 µM (≈ 53.9 µg/mL); MIC (Micrococcus flavus): 62.5 µM (≈ 26.9 µg/mL); MFC99.5 (Talaromyces funiculosus): 0.58 ×10⁻² umol/ml; MIC (Talaromyces funiculosus): 2.9 µM (≈ 1.25 µg/mL); MBC (Salmonella typhimurium): 62.5 µM (≈ 26.9 µg/mL); MIC (Salmonella typhimurium): 30.6 µM (≈ 13.2 µg/mL); Activity [1]: 99.3%; MFC99.5 (Penicillium ochrochloron): 0.58 ×10⁻² umol/ml; MIC (Penicillium ochrochloron): 2.9 µM (≈ 1.25 µg/mL)
